Biological target: T1, MEST1 (Metarhizium robertsii, UniProt E9ETD4)
T1 construct: gene MAA_03283; full-length cDNA (395 aa, 42244 Da, no signal peptide) in pET28a, His6-tagged, 47 kDa band; E. coli Rosetta (DE3) crude extract, not purified
Assay: spectrophotometric p-nitrophenol release
Assay type: biochemical
Conditions: 50 mM potassium phosphate pH 8, 37 °C; crude E. coli extract versus empty-vector extract

T1 sequence (E9ETD4 entry or part of it): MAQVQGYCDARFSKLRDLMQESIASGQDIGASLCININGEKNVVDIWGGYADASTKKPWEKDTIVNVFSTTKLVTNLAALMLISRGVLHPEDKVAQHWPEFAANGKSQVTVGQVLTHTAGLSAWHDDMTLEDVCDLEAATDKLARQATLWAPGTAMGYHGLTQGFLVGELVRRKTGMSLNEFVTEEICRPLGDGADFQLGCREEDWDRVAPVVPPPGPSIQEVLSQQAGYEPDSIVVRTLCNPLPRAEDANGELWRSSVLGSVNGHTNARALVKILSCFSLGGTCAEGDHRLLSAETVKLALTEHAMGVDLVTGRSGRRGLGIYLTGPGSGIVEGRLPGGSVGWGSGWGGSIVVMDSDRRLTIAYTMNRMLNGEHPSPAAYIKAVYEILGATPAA

| Structure (SMILES) | spectrophotometric p-nitrophenol release |
| --- | --- |
| CCCC(=O)Oc1ccc([N+](=O)[O-])cc1 [p-NP butyrate] | highest activity against p-NP propionate (C3), p-NP butyrate (C4) and p-NP caproate (C6) |
| CCC(=O)Oc1ccc([N+](=O)[O-])cc1 [p-NP propionate] | highest activity against p-NP propionate (C3), p-NP butyrate (C4) and p-NP caproate (C6) |
